Reference: US6284785A, “1-arenesulfonyl-2-aryl-pyrrolidine and pyridine derivatives” (Hoffmann- La Roche Inc., priority 1999, dated 2001)

Target: T1, rat mGlu 1a receptor (Rattus norvegicus, UniProt P23385)
T1 construct: expressed in transfected cells; host or cells: EBNA cells (transient transfection)
Test: [Ca2+]i measurements (FLIPR, Fluo-3 AM) on mGlu 1a transfected EBNA cells; agonist or antagonist (against 10 μM glutamate)
Type: cell-based
Settings: for Remarks (agonist / antagonist): table of substituents of the Examples, column Remarks; for agonist/antagonist: activity-data table; for EC50: agonist, activation of mGlu 1a in EBNA cells, read-out: IC50 (compounds marked agonist); for IC50: antagonist, tested against 10 μM glutamate as agonist, read-out: IC50 (compounds marked antagonist)
Procedure: cDNA encoding rat mGlu 1a receptor obtained from Prof. Nakanishi (Kyoto, Japan) was transiently tranfected into EBNA cells using a procedure described by Schlaeger et. al, New Dev. New Appl. Anim Cell Techn., Proc. ESACT Meet., 15th (1998), 105-112 and 117-120. [Ca^2+ ]i measurements were performed on mGlu 1a transfected EBNA cells after incubation of the cells with Fluo-3 AM (0.5 μM final concentration) for 1hour at 37° C. followed by 4 washes with assay buffer (DMEM supplemented with Hank's salt and 20 mM HEPES. [Ca^2+ ]i measurements were done using a fluorometric imaging plate reader (FLIPR, Molecular Devices Corporation, La Jolla, Calif. USA). When compounds were evaluated as antagonists they were tested against 10 μM glutamate as agonist.
The inhibition (antagonists) or activation (agonists) curves were fitted with a four parameter logistic equation giving EC50, IC50, and Hill coefficient using the iterative non linear curve fitting software Origin (Microcal Software Inc., Northampton, Mass., USA).

T1 sequence (P23385 19-1199): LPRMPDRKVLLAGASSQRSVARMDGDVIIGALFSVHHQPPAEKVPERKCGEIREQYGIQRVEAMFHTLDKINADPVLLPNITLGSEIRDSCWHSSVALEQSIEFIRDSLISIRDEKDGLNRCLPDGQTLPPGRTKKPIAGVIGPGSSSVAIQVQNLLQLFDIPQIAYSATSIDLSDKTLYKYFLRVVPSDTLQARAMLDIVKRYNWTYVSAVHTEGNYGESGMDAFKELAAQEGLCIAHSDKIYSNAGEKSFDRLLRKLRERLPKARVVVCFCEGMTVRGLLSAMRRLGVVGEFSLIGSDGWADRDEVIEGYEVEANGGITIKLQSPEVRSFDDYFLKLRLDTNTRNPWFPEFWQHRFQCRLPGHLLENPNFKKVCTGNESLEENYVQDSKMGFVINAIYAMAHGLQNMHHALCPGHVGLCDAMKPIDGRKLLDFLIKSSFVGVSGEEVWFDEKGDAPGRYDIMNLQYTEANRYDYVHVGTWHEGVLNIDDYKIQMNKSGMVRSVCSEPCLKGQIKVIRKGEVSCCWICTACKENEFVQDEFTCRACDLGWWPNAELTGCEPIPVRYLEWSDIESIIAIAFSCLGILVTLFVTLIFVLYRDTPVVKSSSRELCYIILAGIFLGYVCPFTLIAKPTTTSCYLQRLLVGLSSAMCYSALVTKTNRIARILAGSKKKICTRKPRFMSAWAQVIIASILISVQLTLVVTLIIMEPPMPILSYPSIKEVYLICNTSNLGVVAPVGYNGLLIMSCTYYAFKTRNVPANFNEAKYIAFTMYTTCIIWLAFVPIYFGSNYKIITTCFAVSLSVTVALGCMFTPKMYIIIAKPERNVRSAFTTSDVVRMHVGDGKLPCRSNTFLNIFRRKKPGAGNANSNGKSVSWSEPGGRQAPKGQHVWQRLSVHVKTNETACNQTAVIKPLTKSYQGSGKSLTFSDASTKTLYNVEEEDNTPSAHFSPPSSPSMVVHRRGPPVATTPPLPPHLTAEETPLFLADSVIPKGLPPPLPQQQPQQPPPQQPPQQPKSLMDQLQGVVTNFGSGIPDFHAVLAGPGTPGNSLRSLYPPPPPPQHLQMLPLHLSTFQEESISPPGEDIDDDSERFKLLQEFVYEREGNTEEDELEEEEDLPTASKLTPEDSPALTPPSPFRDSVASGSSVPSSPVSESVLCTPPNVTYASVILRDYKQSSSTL

Cc1ccc(S(=O)(=O)N2CCCC2c2cccc(F)c2)cc1 (racemic) [Example 1, (RS)-2-(3-Fluoro-phenyl)-1-(toluene-4-sulfonyl)-pyrrolidine]
Remarks (agonist / antagonist): Agonist

O=S(=O)(c1ccc(Cl)cc1)N1CCCC1c1cccc(F)c1 (racemic) [Example 2, (RS)-1-(4-Chloro-benzenesulfonyl)-2-(3-fluoro-phenyl)-pyrrolidine]
Remarks (agonist / antagonist): Agonist

Cc1ccc(S(=O)(=O)N2CCCC2c2ccncc2)cc1 (racemic) [Example 3, (RS)-4-[1-(Toluene-4-sulfonyl)-pyrrolidin-2-yl]-pyridine]
agonist/antagonist: agonist | EC50: 8.22 µM | Remarks (agonist / antagonist): Agonist

Cc1ccc(S(=O)(=O)N2CCCC2c2ccccc2)cc1 (racemic) [Example 4, (RS)-2-Phenyl-1-(toluene-4-sulfonyl)-pyrrolidine]
agonist/antagonist: agonist | EC50: 0.23 µM | Remarks (agonist / antagonist): Agonist

O=S(=O)(c1ccc(Cl)cc1)N1CCCC1c1ccccc1 (racemic) [Example 6, (RS)-1-(4-Chloro-benzenesulfonyl)-2-phenyl-pyrrolidine]
agonistic / antagonistic activity to the mGlu receptor: agonistic activty | Remarks (agonist / antagonist): Agonist

O=S(=O)(c1ccccc1)N1CCCC1c1ccc(F)cc1 (racemic) [Example 7, (RS)-1-Benzenesulfonyl-2-(4-fluoro-phenyl)-pyrrolidine]
agonist/antagonist: antagonist | IC50: 8 µM | Remarks (agonist / antagonist): Antagonist

Cc1ccc(S(=O)(=O)N2CCCC2c2ccc(Cl)cc2)cc1 (racemic) [Example 8, (RS)-2-(4-Chloro-phenyl)-1-(toluene-4-sulfonyl)-pyrrolidine]
agonistic / antagonistic activity to the mGlu receptor: agonistic activty | Remarks (agonist / antagonist): Agonist

O=S(=O)(c1ccc(Cl)cc1)N1CCCC1c1ccc(Cl)cc1 (racemic) [Example 9, (RS)-1-(4-Chloro-benzenesulfonyl)-2-(4-chloro-phenyl)-pyrrolidine]
agonistic / antagonistic activity to the mGlu receptor: agonistic activty | Remarks (agonist / antagonist): Agonist

COc1ccc(S(=O)(=O)N2CCCC2c2ccc(F)cc2)cc1 (racemic) [Example 10, (RS)-2-(4-Fluoro-phenyl)-1-(4-methoxy-benzenesulfonyl)-pyrrolidine]
Remarks (agonist / antagonist): Antagonist

O=S(=O)(c1ccc(Cl)cc1)N1CCCC1c1ccc(F)cc1 (racemic) [Example 11, (RS)-1-(4-Chloro-benzenesulfonyl)-2-(4-fluorophenyl)-pyrrolidine]
Remarks (agonist / antagonist): Agonist

Cc1ccc(S(=O)(=O)N2CCCC2c2ccc(F)cc2)cc1 (racemic) [Example 12, (RS)-2-(4-Fluoro-phenyl)-1-(toluene-4-sulfonyl)-pyrrolidine]
Remarks (agonist / antagonist): Agonist

O=S(=O)(c1ccccc1)N1CCCC1c1ccc(Cl)cc1 (racemic) [Example 13, (RS)-1-Benzenesulfonyl-2-(4-chloro-phenyl)-pyrrolidine]
Remarks (agonist / antagonist): Agonist

O=S(=O)(c1ccc(Cl)cc1)N1CCCC1c1ccncc1 (racemic) [Example 14, (RS)-4-1-(4-Chloro-benzenesulfonyl)-pyrrolidine-pyridine]
Remarks (agonist / antagonist): Agonist

O=S(=O)(c1ccc(F)cc1)N1CCCC1c1ccc(F)cc1 (racemic) [Example 16, (RS)-1-(4-Fluoro-benzenesulfonyl)-2-(4-fluoro-phenyl)-pyrrolidine]
agonistic / antagonistic activity to the mGlu receptor: agonistic activty | Remarks (agonist / antagonist): Agonist

Cc1ccccc1S(=O)(=O)N1CCCC1c1ccc(F)cc1 (racemic) [Example 18, (RS)-2-(4-Fluoro-phenyl)-1-(toluene-2-sulfonyl)-pyrrolidine]
agonist/antagonist: antagonist | IC50: 1.37 µM | Remarks (agonist / antagonist): Antagonist

Cc1ccc(C2CCCN2S(=O)(=O)c2ccc(C)cc2)cc1 (racemic) [Example 19, (RS)-1-(Toluene-4-sulfonyl)-2-p-tolyl-pyrrolidine]
agonistic / antagonistic activity to the mGlu receptor: agonistic activty | Remarks (agonist / antagonist): Agonist

Cc1ccc(C2CCCN2S(=O)(=O)c2ccc(Cl)cc2)cc1 (racemic) [Example 20, (RS)-1-(4-Chloro-benzenesulfonyl)-2-p-tolyl-pyrrolidine]
Remarks (agonist / antagonist): Antagonist

CCc1ccc(S(=O)(=O)N2CCCC2c2ccc(F)cc2)cc1 (racemic) [Example 21, (RS)-1-(4-Ethyl-benzenesulfonyl)-2-(4-fluoro-Rhenyl)-pyrrolidine]
agonistic / antagonistic activity to the mGlu receptor: agonistic activty | Remarks (agonist / antagonist): Agonist

CC(C)c1ccc(S(=O)(=O)N2CCCC2c2ccc(F)cc2)cc1 (racemic) [Example 22, (RS)-2-(4-Fluoro-phenyl)-1-(4-isopropyl-benzenesulfonyl)-pyrrolidine]
Remarks (agonist / antagonist): Antagonist

Cc1ccc(C2CCCN2S(=O)(=O)c2ccc(F)cc2)cc1 (racemic) [Example 23, (RS)-1-(4-Fluoro-benzenesulfonyl)-2-p-tolyl-pyrrolidine]
Remarks (agonist / antagonist): Antagonist

COc1ccc(C2CCCN2S(=O)(=O)c2ccc(Cl)cc2)cc1 (racemic) [Example 24, (RS)-1-(4-Chloro-benzenesulfonyl)-2-(4-methoxyl-phenyl)-pyrrolidine]
Remarks (agonist / antagonist): Antagonist

COc1ccc(C2CCCN2S(=O)(=O)c2ccc(C)cc2)cc1 (racemic) [Example 25, (RS)-2-(4-Methoxy-phenyl)-1-(toluene-4-sulfonyl)-pyrrolidine]
agonistic / antagonistic activity to the mGlu receptor: agonistic activty | Remarks (agonist / antagonist): Agonist

O=S(=O)(c1ccc(Br)cc1)N1CCCC1c1ccc(F)cc1 (racemic) [Example 26, (RS)-1-(4-Bromo-benzenesulfonyl)-2-(4-fluoro-phenyl)-pyrrolidine]
agonistic / antagonistic activity to the mGlu receptor: agonistic activty | Remarks (agonist / antagonist): Agonist

CC(=O)c1ccc(S(=O)(=O)N2CCCC2c2ccc(F)cc2)cc1 (racemic) [Example 27, (RS)-1-{4-[2-(4-Fluoro-phenyl)-pyrrolidine-1-sulfonyl]-phenyl}-ethanone]
Remarks (agonist / antagonist): Antagonist

Cc1ccc(S(=O)(=O)N2CCCC2c2cccc(C)c2)cc1 (racemic) [Example 28, (RS)-1-(Toluene-4-sulfonyl)-2-m-tolyl-pyrrolidine]
Remarks (agonist / antagonist): Agonist

Cc1cccc(C2CCCN2S(=O)(=O)c2ccc(Cl)cc2)c1 (racemic) [Example 29, (RS)-1-(4-Chloro-benzenesulfonyl)-2-m-tolyl-pyrrolidine]
agonistic / antagonistic activity to the mGlu receptor: agonistic activty | Remarks (agonist / antagonist): Agonist

Cc1cccc(C2CCCN2S(=O)(=O)c2ccc(F)cc2)c1 (racemic) [Example 30, (RS)-1-(4-Fluoro-benzenesulfonyl)-2-m-tolyl-pyrrolidine]
Remarks (agonist / antagonist): Antagonist

Cc1ccc(S(=O)(=O)N2CCCC2c2cccc(Cl)c2)cc1 (racemic) [Example 31, (RS)-2-(3-Chloro-phenyl)-1-(toluene-4-sulfonyl)-pyrrolidine]
agonistic / antagonistic activity to the mGlu receptor: agonistic activty | Remarks (agonist / antagonist): Agonist

O=S(=O)(c1ccc(Cl)cc1)N1CCCC1c1cccc(Cl)c1 (racemic) [Example 32, (RS)-1-(4-Chloro-benzenesulfonyl)-2-(3-chloro-phenyl)-pyrrolidine]
Remarks (agonist / antagonist): Antagonist
